Data as given in BigSolDB 2.1.

CC(=O)c1c(C)c([N+](=O)[O-])c(C(C)(C)C)c([N+](=O)[O-])c1C
solubility (mole fraction)
Settings | 278.15 K | 283.15 K | 288.15 K | 293.15 K | 298.15 K | 303.15 K | 308.15 K | 313.15 K | 318.15 K
in DMAc | 0.113 | 0.129 | 0.147 | 0.165 | 0.185 | 0.206 | 0.228 | 0.252 | 0.278
in DMF | 0.0732 | 0.0856 | 0.0993 | 0.115 | 0.131 | 0.149 | 0.169 | 0.191 | 0.215
in THF | 0.148 | 0.165 | 0.183 | 0.202 | 0.221 | 0.243 | 0.266 | 0.288 | 0.313
in acetonitrile | 0.0141 | 0.0174 | 0.0213 | 0.0259 | 0.0314 | 0.0379 | 0.0455 | 0.0545 | 0.0644
in cyclohexane | 0.00275 | 0.00348 | 0.00439 | 0.00547 | 0.0068 | 0.00853 | 0.0104 | 0.0127 | 0.0153
in ethanol | 0.00201 | 0.00251 | 0.00304 | 0.00364 | 0.00435 | 0.00521 | 0.00622 | 0.00743 | 0.00869
in ethyl acetate | 0.065 | 0.0744 | 0.0846 | 0.0959 | 0.108 | 0.121 | 0.136 | 0.151 | 0.168
in isopropanol | 0.00159 | 0.002 | 0.00259 | 0.00332 | 0.00414 | 0.00521 | 0.00651 | 0.008 | 0.00982
in methanol | 0.00127 | 0.00155 | 0.00188 | 0.00227 | 0.00272 | 0.00324 | 0.00385 | 0.00455 | 0.00533
in n-butanol | 0.00299 | 0.0037 | 0.00455 | 0.00557 | 0.00679 | 0.00823 | 0.00993 | 0.0119 | 0.0141
in n-heptane | 0.00184 | 0.00228 | 0.00281 | 0.00344 | 0.00419 | 0.00508 | 0.00613 | 0.00737 | 0.00878
in n-hexane | 0.00164 | 0.00202 | 0.00248 | 0.00302 | 0.00365 | 0.0044 | 0.00527 | 0.00629 | 0.00744
